According to ChEMBL document CHEMBL1857833, “Screening and optimization of specific chemical series against human African Trypanosomiasis (HAT)”:
≈ marks a conversion by molar mass, not a printed value. Where “and” joins values, the source holds several entries; their conditions need not be identical. Equal values may be shown once.

How the values were obtained:
in vitro = settings: mouse, liver microsomes, t (1 / 2)
Description: DNDI: half life in mouse liver microsomes at a concentration of 1uM

[1] = test system: Trypanosoma brucei rhodesiense; assay: DNDI: Inhibition of Human African Trypanosomiasis (HAT), STIB 900, in vitro; type: functional, organism-based
Trypanosoma brucei [2] = assay: DNDI: Inhibition of Human African Trypanosomiasis, SBRI 427, in vitro; type: functional, organism-based
[3] = DNDI: Cytotoxicity against L929 mouse fibroblasts, CYTO-SP, 24 hour; type: toxicity, cell-based; settings: mouse, L929 mouse fibroblasts
[4] = DNDI: Solubility in phosphate buffered saline at pH7.4 measured by nephelometry at room temperature (NEPH-RT); type: physicochemical; settings: pH 7.4
[5] = DNDI: Lipophilicity measured in Chromatographic hydrophobicity index (CHI) assay, pH 7.4; type: physicochemical; settings: buffer
Trypanosoma brucei [6] = assay: DNDI: Mean survival time in days (MSD) of mice after intraperitoneal injection of Human African Trypanosomiasis (HAT), EATRO 110, in vivo at 20 mg/kg/day for 4 days.; type: functional, Mus musculus
[7] = DNDI: Cytotoxicity against L929 mouse fibroblasts, 72 hour.; type: toxicity, cell-based; settings: mouse, L929 mouse fibroblasts
Leishmania donovani = assay: DNDI: Inhibition of formation of Leishmania donovani (strain MHOM/ET/67/L82) axenic amastigotes, in vitro.; type: functional, organism-based
[8] = mouse, microsomes, 1 µM
Description: DNDI: in vitro intrinsic clearance in mouse liver microsomes at a concentration of 1uM

Trypanosoma cruzi = assay: DNDI: Inhibition of Chagas Disease parasite Trypanosoma cruzi (Tulahuen LacZ, Clone C4), in vitro.; type: functional, organism-based
Plasmodium falciparum = assay: DNDI: Inhibition of the malaria parasite Plasmodium falciparum, in vitro; type: functional, organism-based; settings: K1
[9] = DNDI: Cytotoxicity against L-6 rat myoblasts from skeletal muscle cells; type: toxicity, cell-based, L6; settings: L-6 rat skeletal muscle myoblasts
[10] = DNDI: in vitro intrinsic clearance in mouse liver microsomes at a concentration of 10uM; type: ADME, Microsome; settings: read-out: CLint in vitro
[11] = DNDI: in vitro intrinsic clearance in human liver microsomes at a concentration of 10uM; type: ADME, Microsome
[12] = DNDI: half life in mouse liver microsomes at a concentration of 10uM; type: ADME, Microsome
[13] = DNDI: half life in human liver microsomes at a concentration of 10uM; type: ADME, Microsome
[14] = DNDI: Solubility in phosphate buffered saline at pH7.4 measured by optical density (turbidimetry) at room temperature (OD-RT); type: physicochemical; settings: pH 7.4
Trypanosoma brucei [15] = assay: DNDI: Inhibition of Human African Trypanosomiasis, Cross 22, in vitro; type: functional, organism-based
[16] = Trypanosoma brucei, SBRI 427, read-out: IC50

| Structure (SMILES) | half-life at 1 µM (in vitro) | IC50 [1] | IC50 (Trypanosoma brucei [2]; [16]) | IC50 at 24 h [3] | solubility kinetic [4] | chromatographic logD [5] | MSD (Trypanosoma brucei [6]) | IC50 at 72 h [7] | IC50 (Leishmania donovani) | CLint in vitro [8] | IC50 (Trypanosoma cruzi) | IC50 (Plasmodium falciparum) | IC50 [9] | microsomal CLint at 10 µM [10] | CLint in vitro [11] | half-life at 10 µM [12] | half-life at 10 µM [13] | solubility kinetic [14] | IC50 (Trypanosoma brucei [15]) | IC50 (Trypanosoma brucei [2]) |
| --- | --- | --- | --- | --- | --- | --- | --- | --- | --- | --- | --- | --- | --- | --- | --- | --- | --- | --- | --- | --- |
| CCc1cccc(N/C(=N/O)c2ccc(OC)cc2)c1 | 2 min | 34.3 µg/mL (≈ 127 µM) | 0.76 µg/mL (≈ 2.81 µM) | > 50 µg/mL | > 200 µM | 3.76 | 4 days | > 10 µg/mL | 26.6 µg/mL (≈ 98.3 µM) | 470 µL/min/mg | 17 µg/mL (≈ 62.9 µM) | 3.87 µg/mL (≈ 14.3 µM) | 44.7 µg/mL (≈ 165 µM) |  |  |  |  |  |  |  |
| CCc1cccc(N/C(=N/O)c2ccccc2-c2ccccc2)c1 |  | 20.9 µg/mL (≈ 66.1 µM) | 1.23 µg/mL (≈ 3.89 µM) | 25.3 µg/mL (≈ 80 µM) |  |  |  | 2.4 µg/mL (≈ 7.59 µM) | 4.96 µg/mL (≈ 15.7 µM) |  | 5.38 µg/mL (≈ 17 µM) | 4.43 µg/mL (≈ 14 µM) | 9.67 µg/mL (≈ 30.6 µM) |  |  |  |  |  |  |  |
| CCc1ccc(Oc2ncccc2/C(=N\O)NC2CCCCC2)cc1 |  |  | 0.09 µg/mL (≈ 0.265 µM) |  |  |  | 4 days | > 10 µg/mL |  |  |  |  |  |  |  |  |  |  |  |  |
| Cc1ccc(/C(=N/O)NC2CCCCC2)c(Oc2ccc(C(C)(C)C)cc2)n1 | 8.61 min |  | > 5 µg/mL |  |  |  | 4.5 days | 4.06 µg/mL (≈ 10.6 µM) |  | 98.83 µL/min/mg |  |  |  |  |  |  |  |  |  |  |
| CCCCCC(C)NCc1coc(-c2cccc(OC)c2)n1 (stereo not drawn) |  |  | 2.26 µg/mL (≈ 7.47 µM) | 18 µg/mL (≈ 59.5 µM) |  | 4.32 |  | 6.95 µg/mL (≈ 23 µM) |  |  |  |  |  | 53 µL/min/mg | 23 µL/min/mg | 54 min | 127 min |  |  |  |
| CCc1ccc(N/C(=N/O)c2ccc(OC)cc2)cc1 |  |  | 3.69 µg/mL (≈ 13.6 µM) | > 50 µg/mL |  |  | 4.5 days |  |  |  |  |  |  |  |  |  |  |  |  |  |
| CC(C)(C)c1ccc(Oc2ncccc2/C(=N/O)Nc2cccc(F)c2)cc1 | 23.7 min |  | > 5 µg/mL |  |  |  | 4 days | 3.39 µg/mL (≈ 8.93 µM) |  | 35.83 µL/min/mg |  |  |  |  |  |  |  |  |  |  |
| CCc1ccc(Oc2ncccc2/C(=N\O)NC2CCCCC2O)cc1 (stereo not drawn) | 17 min |  | > 5 µg/mL |  |  |  | 4 days | > 10 µg/mL |  | 51 µL/min/mg |  |  |  |  |  |  |  |  |  |  |
| CCc1ccc(Oc2ncccc2/C(=N\O)NC2CCCC[C@@H]2N)cc1 (stereo partly drawn) | 116 min |  | > 5 µg/mL |  |  |  | 4 days | > 10 µg/mL |  | 7 µL/min/mg |  |  |  |  |  |  |  |  |  |  |
| O/N=C(\NCC1CCCCC1)c1ccccc1-c1ccccc1 |  | 18.7 µg/mL (≈ 60.6 µM) | 2.15 µg/mL (≈ 6.97 µM) | 16.1 µg/mL (≈ 52.1 µM) |  |  |  | 2.72 µg/mL (≈ 8.82 µM) | 4.75 µg/mL (≈ 15.4 µM) |  | 3.63 µg/mL (≈ 11.8 µM) | 2.7 µg/mL (≈ 8.75 µM) | 14.8 µg/mL (≈ 47.9 µM) |  |  |  |  |  |  |  |
| COc1ccc(CNC(CCc2ccccc2)c2nc(Cc3ccccc3)c(N3CCCCC3)o2)cc1OC (stereo not drawn) | 2 min |  | 2.54 µg/mL (≈ 4.83 µM) |  | 3 µM (≈ 1.58 µg/mL) | > 5.2 | 4 days | > 10 µg/mL |  | 354 µL/min/mg |  |  |  |  |  |  |  |  |  |  |
| CCCCCC(C)NCc1coc(-c2ccc(C)cc2)n1 (stereo not drawn) |  | 0.582 µg/mL (≈ 2.03 µM) | 1.95 µg/mL (≈ 6.81 µM) | 17 µg/mL (≈ 59.4 µM) |  | 4.66 |  | 5.76 µg/mL (≈ 20.1 µM) | 13.6 µg/mL (≈ 47.6 µM) |  | 15.7 µg/mL (≈ 54.8 µM) | 1.83 µg/mL (≈ 6.39 µM) | 12.6 µg/mL (≈ 43.9 µM) | 31 µL/min/mg |  | 94 min |  | 12.5 µM (≈ 3.58 µg/mL) |  |  |
| CCCCCC(C)NCc1coc(-c2cccc(Cl)c2)n1 (stereo not drawn) |  |  | 2.08 µg/mL (≈ 6.78 µM) | 14 µg/mL (≈ 45.6 µM) |  | 5.02 |  | 7.27 µg/mL (≈ 23.7 µM) |  |  |  |  |  | 28 µL/min/mg |  | 103 min |  | 12.5 µM (≈ 3.84 µg/mL) |  |  |
| CCc1ccc(/C(=N/O)NC2CCCCC2)cc1 | 4 min | 8.75 µg/mL (≈ 35.5 µM) | 0.98 µg/mL (≈ 3.98 µM) | > 50 µg/mL | 50 µM (≈ 12.3 µg/mL) | 4.6 | 4 days | > 10 µg/mL | 11.3 µg/mL (≈ 45.9 µM) | 210 µL/min/mg | 10.8 µg/mL (≈ 43.7 µM) | > 5 µg/mL | 53.8 µg/mL (≈ 218 µM) |  |  |  |  |  |  |  |
| CCCCCC(C)NCc1coc(-c2ccc(C(C)(C)C)cc2)n1 (stereo not drawn) | 51 min | 0.302 µg/mL (≈ 0.919 µM) |  | 9 µg/mL (≈ 27.4 µM) |  |  |  | 1.36 µg/mL (≈ 4.14 µM) | 6.61 µg/mL (≈ 20.1 µM) | 17 µL/min/mg | 2.8 µg/mL (≈ 8.52 µM) | 0.694 µg/mL (≈ 2.11 µM) | 3.25 µg/mL (≈ 9.89 µM) |  |  |  |  |  | 0.49 µg/mL (≈ 1.49 µM) | 0.86 µg/mL and 0.42 µg/mL |
